# Assay results reported in patent US5470877A, “Uses of perillic acid methyl ester” (Wisconsin Alumni Research Foundation, priority 1994, dated 1995).
# Test: Tolerability in nude mice (National Cancer Institute)
# Format: in vivo
# Method: In an extension of our work, the National Cancer Institute has studied the effect of perillyl alcohol doses in nude mice using an oral bid ×14 day schedule. […] Perillyl alcohol was also administered in PEG400 at the same dose levels.
structure (smiles),measurement,setting,value
C=C(C)[C@@H]1CC=C(CO)CC1 [perillyl alcohol],weight loss,"0.5 g/kg/treatment oral bid, sesame oil",No weight loss
same,course of weight loss,"1.0 gram/kg/treatment oral bid, after day 10",the weight loss leveled off
same,average body weight lost,"1.0 gram/kg/treatment oral bid, diluted 1:1 in sesame oil, day 10",3 g
same,lethality,"in PEG400, same dose levels",Lethality was observed
